From patent publication US11401277B2, “Anti-bacterial heterocyclic compounds and their synthesis” (Bugworks Research, Inc., priority 2017, dated 2022)
Converted amounts (≈) assume the structure as drawn. “And” between values parts separate entries of the source, which are not always exact repeats. Equal entries are not always repeated.

Assays:
[1] = In vivo pharmacokinetic (PK) studies in rats; set-up: species or system Sprague-Dawley (SD) rats; conditions: male, Sprague-Dawley, rat, plasma
E. coli [ATCC25922] [2] = assay: Neutropenic Thigh Infection Model in Rat, E. coli; type: in vivo; conditions: for MEAN ± SD (Log10 CFU/g thigh) / Mean Log 10 CFU/thigh reduction (wrt 2 h PI control: 5.04 Log10CFU/g thigh) / Log10 CFU/g thigh: i.v., 1 h infusion; for Log10 CFU/g thigh: individual animals, 10 hr post infection
[3] = tested on: K. pneumoniae [ATCC13883]; assay: Neutropenic Thigh Infection Model in Rat, K. pneumoniae; type: in vivo; conditions: for MEAN ± SD (Log10 CFU/g thigh) / Mean Log 10 CFU/thigh reduction (wrt 2 h PI control: 5.04 Log10CFU/g thigh) / Log10 CFU/g thigh: i.v., 1 h infusion; for Log10 CFU/g thigh: individual animals, 10 hr post infection
[4] = tested on: clinical strains of five Gram-negative bacterial species; assay: Antibacterial susceptibility studies, overall statement; type: cell-based; conditions: range over 5 Gram-negative species
Excerpt: The standard drugs ciprofloxacin and meropenem were used as positive controls in the study.

E. coli [ATCC25922] [5] = assay: Urinary Tract Infection Rat Model (kidneys, bladder); conditions: for MEAN ± SD (Log10 CFU/g kidneys) / MEAN ± SD (Log10 CFU/ml Bladder) / Mean Log10CFU/g kidney reduction (wrt 4 h PI control: 4.53 Log10CFU/g kidneys) / Mean Log10 CFU/ml Bladder reduction (wrt 4 h PI control: 5.72 CFU/ml Bladder) / Log10 CFU/g (Left Kidney) / Log10 CFU/g (Right Kidney) / Log10 CFU/ml Bladder: i.v., 1 h infusion; for Log10 CFU/g (Left Kidney) / Log10 CFU/g (Right Kidney) / Log10 CFU/ml Bladder: individual animals, 24 h post infection

Structure (SMILES): Cn1c(=O)ccc2ccc(F)c(OCCNC[C@H]3CN(c4cnc5c(n4)NC(=O)CO5)C(=O)O3)c21 [Compound 2, (S)-6-(5-(((2-((7-fluoro-1-methyl-2-oxo-1,2-dihydroquinolin-8-yl)oxy)ethyl)amino)methyl)-2-oxooxazolidin-3-yl)-2H-pyrazino[2,3-b][1,4]oxazin-3(4H)-one]
- AUC(0-inf) ([1]; 100 mg/kg, PO): 14400 ± 4600 ng·h/mL
- Cmax ([1]; 100 mg/kg, PO): 9790 ± 1100 ng/mL
- Tmax ([1]; 100 mg/kg, PO): 0.33 ± 0.14 h
- half-life ([1]; 100 mg/kg, PO): 5.32 ± 2.1 h
- AUC(0-inf) ([1]; 150 mg/kg, IV): 172000 ± 10700 ng·h/mL
- AUC(0-t) ([1]; 150 mg/kg, IV): 172000 ± 10800 ng·h/mL
- Tmax ([1]; 150 mg/kg, IV): 2 h
- half-life ([1]; 150 mg/kg, IV): 4.24 ± 0.67 h
- clearance ([1]; 150 mg/kg, IV, read-out: CLp (converted)): 14.5 mL/min/kg
- AUC(0-inf) ([1]; 300 mg/kg, PO): 27200 ± 17500 ng·h/mL
- Cmax ([1]; 300 mg/kg, PO): 11100 ± 3100 ng/mL
- Tmax ([1]; 300 mg/kg, PO): 1 h
- half-life ([1]; 300 mg/kg, PO): 2.2 h
- MEAN ± SD (Log10 CFU/g thigh) (E. coli [ATCC25922] [2]; 3 mg/kg): 5.08 ± 0.39 Log10 CFU/g thigh
- Mean Log 10 CFU/thigh reduction (wrt 2 h PI control: 5.04 Log10CFU/g thigh) (E. coli [ATCC25922] [2]; 3 mg/kg): 0.77 Log 10 CFU/thigh
- Log10 CFU/g thigh (E. coli [ATCC25922] [2]; 3 mg/kg): 5.37 Log10 CFU/g thigh and 4.64 Log10 CFU/g thigh and 5.23 Log10 CFU/g thigh
- MEAN ± SD (Log10 CFU/g thigh) (E. coli [ATCC25922] [2]; 10 mg/kg): 4.41 ± 0.18 Log10 CFU/g thigh
- Mean Log 10 CFU/thigh reduction (wrt 2 h PI control: 5.04 Log10CFU/g thigh) (E. coli [ATCC25922] [2]; 10 mg/kg): 1.44 Log 10 CFU/thigh
- Log10 CFU/g thigh (E. coli [ATCC25922] [2]; 10 mg/kg): 4.44 Log10 CFU/g thigh and 4.57 Log10 CFU/g thigh and 4.21 Log10 CFU/g thigh
- MEAN ± SD (Log10 CFU/g thigh) (E. coli [ATCC25922] [2]; 30 mg/kg): 2.83 ± 0.35 Log10 CFU/g thigh
- Mean Log 10 CFU/thigh reduction (wrt 2 h PI control: 5.04 Log10CFU/g thigh) (E. coli [ATCC25922] [2]; 30 mg/kg): 3.02 Log 10 CFU/thigh
- Log10 CFU/g thigh (E. coli [ATCC25922] [2]; 30 mg/kg): 2.66 Log10 CFU/g thigh and 2.6 Log10 CFU/g thigh and 3.24 Log10 CFU/g thigh
- efficacy with respect to 2 h Post Infection (PI) control (in words) (E. coli [ATCC25922] [2]; 3, 10 and 30 mg/kg, rat thigh E. coli): significant dose dependent bactericidal efficacy
- MEAN ± SD (Log10 CFU/g thigh) ([3]; 3 mg/kg): 3.91 ± 0.04 Log10 CFU/g thigh
- Mean Log 10 CFU/thigh reduction (wrt 2 h PI control: 5.04 Log10CFU/g thigh) ([3]; 3 mg/kg): 1.13 Log 10 CFU/thigh
- Log10 CFU/g thigh ([3]; 3 mg/kg): 3.95 Log10 CFU/g thigh and 3.87 Log10 CFU/g thigh and 3.91 Log10 CFU/g thigh
- MEAN ± SD (Log10 CFU/g thigh) ([3]; 10 mg/kg): 3.61 ± 0.31 Log10 CFU/g thigh
- Mean Log 10 CFU/thigh reduction (wrt 2 h PI control: 5.04 Log10CFU/g thigh) ([3]; 10 mg/kg): 1.43 Log 10 CFU/thigh
- Log10 CFU/g thigh ([3]; 10 mg/kg): 3.74 Log10 CFU/g thigh and 3.26 Log10 CFU/g thigh and 3.84 Log10 CFU/g thigh
- efficacy with respect to 2 h Post Infection (PI) control (in words) ([3]; 3, 10 and 30 mg/kg, rat thigh K. pneumoniae): significant dose dependent bactericidal efficacy
- MIC90 [4]: 0.25 to 1 µg/mL (≈ 0.516 to 2.06 µM)
- effect when compared to the 4 h PI control (in words) (E. coli [ATCC25922] [5]; 3 mg/kg): bacteriostatic
- MEAN ± SD (Log10 CFU/g kidneys) (E. coli [ATCC25922] [5]; 3 mg/kg): 5.13 ± 0.28 Log10 CFU/g kidneys
- MEAN ± SD (Log10 CFU/ml Bladder) (E. coli [ATCC25922] [5]; 3 mg/kg): 5.89 ± 0.4 Log10 CFU/ml Bladder
- Mean Log10CFU/g kidney reduction (wrt 4 h PI control: 4.53 Log10CFU/g kidneys) (E. coli [ATCC25922] [5]; 3 mg/kg): −0.60 Log10CFU/g kidney
- Mean Log10 CFU/ml Bladder reduction (wrt 4 h PI control: 5.72 CFU/ml Bladder) (E. coli [ATCC25922] [5]; 3 mg/kg): −0.17 Log10 CFU/ml Bladder
- Log10 CFU/g (Left Kidney) (E. coli [ATCC25922] [5]; 3 mg/kg): 5.39 Log10 CFU/g and 5.17 Log10 CFU/g and 5.24 Log10 CFU/g
- Log10 CFU/g (Right Kidney) (E. coli [ATCC25922] [5]; 3 mg/kg): 4.68 Log10 CFU/g and 4.90 Log10 CFU/g and 5.39 Log10 CFU/g
- Log10 CFU/ml Bladder (E. coli [ATCC25922] [5]; 3 mg/kg): 5.43 Log10 CFU/ml Bladder and 6.16 Log10 CFU/ml Bladder and 6.08 Log10 CFU/ml Bladder
- MEAN ± SD (Log10 CFU/g kidneys) (E. coli [ATCC25922] [5]; 10 mg/kg): 3.95 ± 0.33 Log10 CFU/g kidneys
- MEAN ± SD (Log10 CFU/ml Bladder) (E. coli [ATCC25922] [5]; 10 mg/kg): 4.8 ± 0.2 Log10 CFU/ml Bladder
- Mean Log10CFU/g kidney reduction (wrt 4 h PI control: 4.53 Log10CFU/g kidneys) (E. coli [ATCC25922] [5]; 10 mg/kg): 0.58 Log10CFU/g kidney
- Mean Log10 CFU/ml Bladder reduction (wrt 4 h PI control: 5.72 CFU/ml Bladder) (E. coli [ATCC25922] [5]; 10 mg/kg): 0.92 Log10 CFU/ml Bladder
- Log10 CFU/g (Left Kidney) (E. coli [ATCC25922] [5]; 10 mg/kg): 4.12 Log10 CFU/g and 3.78 Log10 CFU/g and 4.46 Log10 CFU/g
- Log10 CFU/g (Right Kidney) (E. coli [ATCC25922] [5]; 10 mg/kg): 4.11 Log10 CFU/g and 3.65 Log10 CFU/g and 3.61 Log10 CFU/g
- Log10 CFU/ml Bladder (E. coli [ATCC25922] [5]; 10 mg/kg): 5.02 Log10 CFU/ml Bladder and 4.61 Log10 CFU/ml Bladder and 4.76 Log10 CFU/ml Bladder
- MEAN ± SD (Log10 CFU/g kidneys) (E. coli [ATCC25922] [5]; 30 mg/kg): 2.91 ± 0.31 Log10 CFU/g kidneys
- MEAN ± SD (Log10 CFU/ml Bladder) (E. coli [ATCC25922] [5]; 30 mg/kg): 3.89 ± 0.3 Log10 CFU/ml Bladder
- Mean Log10CFU/g kidney reduction (wrt 4 h PI control: 4.53 Log10CFU/g kidneys) (E. coli [ATCC25922] [5]; 30 mg/kg): 1.62 Log10CFU/g kidney
- Mean Log10 CFU/ml Bladder reduction (wrt 4 h PI control: 5.72 CFU/ml Bladder) (E. coli [ATCC25922] [5]; 30 mg/kg): 1.83 Log10 CFU/ml Bladder
- Log10 CFU/g (Left Kidney) (E. coli [ATCC25922] [5]; 30 mg/kg): 3.22 Log10 CFU/g and 3.36 Log10 CFU/g and 2.80 Log10 CFU/g
- Log10 CFU/g (Right Kidney) (E. coli [ATCC25922] [5]; 30 mg/kg): 2.77 Log10 CFU/g and 2.75 Log10 CFU/g and 2.55 Log10 CFU/g
- Log10 CFU/ml Bladder (E. coli [ATCC25922] [5]; 30 mg/kg): 4.19 Log10 CFU/ml Bladder and 3.90 Log10 CFU/ml Bladder and 3.58 Log10 CFU/ml Bladder
- effect with respect to 4 h PI control (in words) (E. coli [ATCC25922] [5]; 10 and 30 mg/kg): significant dose dependent bactericidal effect
